In ChEMBL document CHEMBL1201862, “PubChem BioAssay data set” (2004):
Activity calls are given as the source filed them.

What was measured:
[1] = target: Intestinal-type alkaline phosphatase (Homo sapiens, UniProt P09923); assay: inhibition of human intestinal alkaline phosphatase – biochemical, dose response (AID 488876); type: functional
[2] = inhibitors of intracellular T. cruzi replication, confirmation, NIH3T3 host cells, beta-gal luminescence (AID 2044); type: functional, cell-based;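 further: intracellular parasites grown in NIH/3T3 mouse fibroblasts as host cells; luminescent beta-galactosidase reporter signal from transgenic T. cruzi replicating inside host cells; inhibitors lower the luminescence signal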
[3] = cytotoxicity toward NIH3T3 fibroblasts, dose response, counter-screen, cell-based, ATP luminescence, mouse fibroblasts (AID 2010); type: functional;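 further: cells exposed to compound for about 90 hours before reading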
[4] = target: T1, Alkaline phosphatase, tissue-nonspecific isozyme (Homo sapiens, UniProt P05186); assay: TNAP enzyme inhibition by screening hits, dose response, selectivity assay for mouse IAP inhibitor project, biochemical, human TNAP, uHTS hits (AID 488906); type: functional
T1 sequence (P05186 whole entry): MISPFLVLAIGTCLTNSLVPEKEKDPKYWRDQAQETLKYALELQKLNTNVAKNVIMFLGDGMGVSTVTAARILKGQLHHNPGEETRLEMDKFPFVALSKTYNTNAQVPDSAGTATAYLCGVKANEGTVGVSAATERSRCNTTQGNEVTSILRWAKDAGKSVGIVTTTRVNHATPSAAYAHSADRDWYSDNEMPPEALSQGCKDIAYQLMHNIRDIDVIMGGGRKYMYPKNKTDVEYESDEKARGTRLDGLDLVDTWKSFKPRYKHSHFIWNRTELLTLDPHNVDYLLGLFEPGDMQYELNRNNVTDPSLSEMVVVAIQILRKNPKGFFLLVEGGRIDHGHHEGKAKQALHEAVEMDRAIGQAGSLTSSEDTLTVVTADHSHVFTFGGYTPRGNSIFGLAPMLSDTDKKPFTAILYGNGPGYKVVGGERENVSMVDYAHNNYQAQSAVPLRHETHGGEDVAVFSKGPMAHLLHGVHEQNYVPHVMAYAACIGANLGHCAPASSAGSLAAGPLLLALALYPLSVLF

[5] = target: Intestinal-type alkaline phosphatase (Mus musculus, UniProt P24822); assay: PubChem AID 488785; type: functional
[6] = target: T2, G-protein coupled receptor 35 (Homo sapiens, UniProt Q9HC97); assay: SAR Analysis for the identification of Selective Antagonists of ERK1/2 Activity in GPR35-Overexpressing U2OS Cells. [Related pubchem assays: 2079, 2058 ]; type: functional, cell-based
T2 sequence (Q9HC97 whole entry): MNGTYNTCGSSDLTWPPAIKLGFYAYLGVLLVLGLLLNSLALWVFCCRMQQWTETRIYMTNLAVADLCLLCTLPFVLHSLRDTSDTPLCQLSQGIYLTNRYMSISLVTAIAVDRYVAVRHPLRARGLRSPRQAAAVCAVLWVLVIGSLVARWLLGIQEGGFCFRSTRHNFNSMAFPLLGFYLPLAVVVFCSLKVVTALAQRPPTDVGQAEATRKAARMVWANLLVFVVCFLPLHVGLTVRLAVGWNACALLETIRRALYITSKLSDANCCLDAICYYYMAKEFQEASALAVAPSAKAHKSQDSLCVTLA

[7] = target: T3, Beta-2 adrenergic receptor (Homo sapiens, UniProt P07550); assay: beta2AR agonists driving receptor internalization, dose response, cell-based, FAP fluorogen, flow cytometry, cherry pick 1 (AID 588763); type: functional
T3 sequence (P07550 whole entry): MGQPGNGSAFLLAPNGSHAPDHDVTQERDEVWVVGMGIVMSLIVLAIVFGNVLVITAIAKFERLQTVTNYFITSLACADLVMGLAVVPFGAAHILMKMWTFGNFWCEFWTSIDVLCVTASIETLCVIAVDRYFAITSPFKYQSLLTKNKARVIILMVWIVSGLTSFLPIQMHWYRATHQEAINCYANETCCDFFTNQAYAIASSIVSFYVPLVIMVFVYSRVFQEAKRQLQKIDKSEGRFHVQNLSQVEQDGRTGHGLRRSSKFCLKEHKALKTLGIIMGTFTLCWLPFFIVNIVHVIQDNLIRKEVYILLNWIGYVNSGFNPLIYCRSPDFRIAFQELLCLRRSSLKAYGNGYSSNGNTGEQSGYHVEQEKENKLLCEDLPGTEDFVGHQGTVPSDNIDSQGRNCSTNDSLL

[8] = target: T2, G-protein coupled receptor 35; assay: GPR35 antagonists blocking zaprinast-driven arrestin recruitment, primary screen, imaging, U2OS, beta-arrestin-GFP, zaprinast agonist (AID 2058); type: functional;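 further: antagonist potency meaning inhibition of agonist-induced arrestin redistribution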
[9] = microbe, parasite or virus in culture; type: functional; conditions: Mycobacterium tuberculosis
[10] = target: T3, Beta-2 adrenergic receptor; assay: Dose response for HTS for Beta-2AR agonists via FAP method from Powderset3.; type: functional
[11] = growth suppression of beta-catenin-knockout colon cells, dose response, cell-based, HCT116, human colon tumor (AID 1045); type: functional;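 further: HCT116 colon tumor cells with beta catenin knocked out; cells exposed to compound for 60 hours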
[12] = target: G-protein coupled receptor 55 (Homo sapiens, UniProt Q9Y2T6); assay: GPR55 antagonists, SAR follow-up, counter-screen for GPR35 antagonist project, imaging, image-based (AID 2397); type: functional
[13] = growth suppression of PTEN-null colon cells, dose response, cell-based, HCT116 PTEN knockout (AID 1047); type: functional;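 further: HCT116 colon tumor cells with PTEN knocked out; cells exposed to compound for 60 hours before readout; potency for loss of cell viability measured by luminescence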
[14] = target: Trypsin (Sus scrofa, UniProt P00761); assay: porcine trypsin inhibitors, dose response, selectivity assay for Rce1 protease inhibitor project, biochemical, quenched peptide fluorescence, cherry-pick (AID 488789)
Chain of Trypsin (P00761 whole entry): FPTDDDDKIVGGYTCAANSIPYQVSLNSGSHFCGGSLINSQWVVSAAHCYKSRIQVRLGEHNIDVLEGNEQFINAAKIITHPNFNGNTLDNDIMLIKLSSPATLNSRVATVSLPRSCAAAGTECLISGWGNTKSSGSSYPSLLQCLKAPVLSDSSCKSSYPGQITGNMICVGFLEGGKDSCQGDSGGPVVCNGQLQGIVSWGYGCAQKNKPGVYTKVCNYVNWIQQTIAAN

[15] = target: CAAX prenyl protease 1 (Saccharomyces cerevisiae S288c, UniProt P47154); assay: Ste24 protease inhibitors, dose response, biochemical, S. cerevisiae, plate reader, cherry-pick (AID 488815)
[16] = target: CAAX prenyl protease 2 (Homo sapiens, UniProt Q9Y256); assay: human Rce1 protease inhibitors, dose response, biochemical, yeast membranes, quenched-peptide fluorescence, cherry-pick (AID 588849)
[17] = target: FAD-linked sulfhydryl oxidase ALR (Homo sapiens, UniProt P55789); assay: inhibitors of human ALR sulfhydryl oxidase, dose response, biochemical, H2O2 detection, luminescence, cherry-pick (AID 493248)
Chain of FAD-linked sulfhydryl oxidase ALR (P55789 whole entry): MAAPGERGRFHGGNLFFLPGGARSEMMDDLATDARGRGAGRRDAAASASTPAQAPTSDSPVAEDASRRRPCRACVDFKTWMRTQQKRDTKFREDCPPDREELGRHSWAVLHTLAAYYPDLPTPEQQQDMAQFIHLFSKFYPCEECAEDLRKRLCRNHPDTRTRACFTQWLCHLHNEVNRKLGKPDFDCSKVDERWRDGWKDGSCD

[18] = target: T4, Short transient receptor potential channel 4 (Mus musculus, UniProt Q9QUQ5); assay: mouse TRPC4 channel inhibitors, dose response, cell-based, HEK293 TRPC4/mu-opioid, Fluo-4 calcium (AID 434942); type: functional;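 further: potency of inhibitors blocking the TRPC4 calcium response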
T4 sequence (Q9QUQ5 whole entry): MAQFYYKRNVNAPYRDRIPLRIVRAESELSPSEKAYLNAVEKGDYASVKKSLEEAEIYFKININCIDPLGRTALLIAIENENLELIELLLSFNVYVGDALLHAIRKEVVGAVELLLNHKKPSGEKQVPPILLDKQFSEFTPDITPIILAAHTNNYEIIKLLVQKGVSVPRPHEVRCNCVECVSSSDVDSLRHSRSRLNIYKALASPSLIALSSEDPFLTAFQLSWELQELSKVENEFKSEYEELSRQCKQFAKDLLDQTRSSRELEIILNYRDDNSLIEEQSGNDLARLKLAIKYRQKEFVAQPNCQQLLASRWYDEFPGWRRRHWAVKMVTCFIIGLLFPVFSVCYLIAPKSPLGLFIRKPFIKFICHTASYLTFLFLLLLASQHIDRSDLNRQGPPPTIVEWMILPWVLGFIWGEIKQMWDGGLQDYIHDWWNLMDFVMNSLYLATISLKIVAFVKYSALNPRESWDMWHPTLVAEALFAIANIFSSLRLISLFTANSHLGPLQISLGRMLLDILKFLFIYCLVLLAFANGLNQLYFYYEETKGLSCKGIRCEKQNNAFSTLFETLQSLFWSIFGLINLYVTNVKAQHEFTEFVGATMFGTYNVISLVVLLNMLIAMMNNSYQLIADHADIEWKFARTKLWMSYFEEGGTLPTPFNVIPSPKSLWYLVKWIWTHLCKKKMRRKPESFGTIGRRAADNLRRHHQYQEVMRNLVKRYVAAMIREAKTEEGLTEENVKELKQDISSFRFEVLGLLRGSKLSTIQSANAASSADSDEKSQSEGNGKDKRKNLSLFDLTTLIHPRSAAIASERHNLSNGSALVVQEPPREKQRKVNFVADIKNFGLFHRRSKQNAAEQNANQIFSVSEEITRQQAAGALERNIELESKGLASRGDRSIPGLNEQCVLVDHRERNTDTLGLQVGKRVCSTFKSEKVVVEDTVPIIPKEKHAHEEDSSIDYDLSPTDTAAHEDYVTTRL

[19] = target: T4, Short transient receptor potential channel 4; assay: SAR Analysis for the identification of selective inhibits of the transient receptor potential cation channel C4 (TRPC4): Automated Electrophysiology. [Related pubchem assays (depositor defined):AID2256]; type: functional
[20] = target: Cytochrome P450 2D6 (Homo sapiens, UniProt P10635);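 further: CYP2D6 member of a cytochrome P450 panel assay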
Chain of Cytochrome P450 2D6 (P10635 whole entry): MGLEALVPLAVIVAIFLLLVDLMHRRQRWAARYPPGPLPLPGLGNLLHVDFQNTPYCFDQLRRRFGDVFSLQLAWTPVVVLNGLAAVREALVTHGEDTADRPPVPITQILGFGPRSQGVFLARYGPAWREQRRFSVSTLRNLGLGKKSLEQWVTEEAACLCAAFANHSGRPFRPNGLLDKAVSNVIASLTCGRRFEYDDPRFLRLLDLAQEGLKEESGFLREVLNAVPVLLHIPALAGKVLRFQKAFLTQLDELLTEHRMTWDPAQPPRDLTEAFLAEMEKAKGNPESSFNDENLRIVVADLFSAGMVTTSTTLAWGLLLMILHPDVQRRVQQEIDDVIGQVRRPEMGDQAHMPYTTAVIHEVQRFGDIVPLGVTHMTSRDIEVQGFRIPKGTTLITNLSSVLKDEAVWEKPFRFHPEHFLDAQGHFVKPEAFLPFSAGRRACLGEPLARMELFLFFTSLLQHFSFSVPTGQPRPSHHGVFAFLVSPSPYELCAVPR

[21] = target: T5, Dual specificity protein phosphatase 6 (Rattus norvegicus, UniProt Q64346); assay: MKP-3 phosphatase inhibitors, primary screen, biochemical, rat enzyme, in vitro (AID 425)
T5 sequence (Q64346 whole entry): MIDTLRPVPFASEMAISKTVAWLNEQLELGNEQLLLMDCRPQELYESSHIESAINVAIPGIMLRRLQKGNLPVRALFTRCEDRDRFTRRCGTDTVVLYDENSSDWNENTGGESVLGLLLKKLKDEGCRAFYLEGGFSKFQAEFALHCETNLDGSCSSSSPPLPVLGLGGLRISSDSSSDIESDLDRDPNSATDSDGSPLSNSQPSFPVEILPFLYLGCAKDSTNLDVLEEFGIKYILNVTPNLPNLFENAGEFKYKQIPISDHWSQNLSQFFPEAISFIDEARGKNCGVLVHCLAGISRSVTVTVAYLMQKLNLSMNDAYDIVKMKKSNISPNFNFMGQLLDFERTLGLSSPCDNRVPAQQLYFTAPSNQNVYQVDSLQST

[22] = target: T6, Dual specificity protein phosphatase 3 (Homo sapiens, UniProt P51452); assay: VHR1 phosphatase inhibitors, primary screen, biochemical, absorbance, uHTS (AID 1654)
T6 sequence (P51452 whole entry): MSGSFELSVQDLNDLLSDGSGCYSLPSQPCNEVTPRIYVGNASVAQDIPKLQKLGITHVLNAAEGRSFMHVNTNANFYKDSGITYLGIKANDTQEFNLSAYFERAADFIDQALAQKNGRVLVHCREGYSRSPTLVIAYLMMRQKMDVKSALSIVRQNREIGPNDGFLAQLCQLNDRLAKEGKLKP

[23] = target: T7, Voltage-gated N-type calcium channel alpha-1B subunit/Amyloid beta A4 precursor protein-binding family A member 1 (Homo sapiens, UniProt Q00975+Q02410); type: protein assay
T7 sequence (Q00975 whole entry): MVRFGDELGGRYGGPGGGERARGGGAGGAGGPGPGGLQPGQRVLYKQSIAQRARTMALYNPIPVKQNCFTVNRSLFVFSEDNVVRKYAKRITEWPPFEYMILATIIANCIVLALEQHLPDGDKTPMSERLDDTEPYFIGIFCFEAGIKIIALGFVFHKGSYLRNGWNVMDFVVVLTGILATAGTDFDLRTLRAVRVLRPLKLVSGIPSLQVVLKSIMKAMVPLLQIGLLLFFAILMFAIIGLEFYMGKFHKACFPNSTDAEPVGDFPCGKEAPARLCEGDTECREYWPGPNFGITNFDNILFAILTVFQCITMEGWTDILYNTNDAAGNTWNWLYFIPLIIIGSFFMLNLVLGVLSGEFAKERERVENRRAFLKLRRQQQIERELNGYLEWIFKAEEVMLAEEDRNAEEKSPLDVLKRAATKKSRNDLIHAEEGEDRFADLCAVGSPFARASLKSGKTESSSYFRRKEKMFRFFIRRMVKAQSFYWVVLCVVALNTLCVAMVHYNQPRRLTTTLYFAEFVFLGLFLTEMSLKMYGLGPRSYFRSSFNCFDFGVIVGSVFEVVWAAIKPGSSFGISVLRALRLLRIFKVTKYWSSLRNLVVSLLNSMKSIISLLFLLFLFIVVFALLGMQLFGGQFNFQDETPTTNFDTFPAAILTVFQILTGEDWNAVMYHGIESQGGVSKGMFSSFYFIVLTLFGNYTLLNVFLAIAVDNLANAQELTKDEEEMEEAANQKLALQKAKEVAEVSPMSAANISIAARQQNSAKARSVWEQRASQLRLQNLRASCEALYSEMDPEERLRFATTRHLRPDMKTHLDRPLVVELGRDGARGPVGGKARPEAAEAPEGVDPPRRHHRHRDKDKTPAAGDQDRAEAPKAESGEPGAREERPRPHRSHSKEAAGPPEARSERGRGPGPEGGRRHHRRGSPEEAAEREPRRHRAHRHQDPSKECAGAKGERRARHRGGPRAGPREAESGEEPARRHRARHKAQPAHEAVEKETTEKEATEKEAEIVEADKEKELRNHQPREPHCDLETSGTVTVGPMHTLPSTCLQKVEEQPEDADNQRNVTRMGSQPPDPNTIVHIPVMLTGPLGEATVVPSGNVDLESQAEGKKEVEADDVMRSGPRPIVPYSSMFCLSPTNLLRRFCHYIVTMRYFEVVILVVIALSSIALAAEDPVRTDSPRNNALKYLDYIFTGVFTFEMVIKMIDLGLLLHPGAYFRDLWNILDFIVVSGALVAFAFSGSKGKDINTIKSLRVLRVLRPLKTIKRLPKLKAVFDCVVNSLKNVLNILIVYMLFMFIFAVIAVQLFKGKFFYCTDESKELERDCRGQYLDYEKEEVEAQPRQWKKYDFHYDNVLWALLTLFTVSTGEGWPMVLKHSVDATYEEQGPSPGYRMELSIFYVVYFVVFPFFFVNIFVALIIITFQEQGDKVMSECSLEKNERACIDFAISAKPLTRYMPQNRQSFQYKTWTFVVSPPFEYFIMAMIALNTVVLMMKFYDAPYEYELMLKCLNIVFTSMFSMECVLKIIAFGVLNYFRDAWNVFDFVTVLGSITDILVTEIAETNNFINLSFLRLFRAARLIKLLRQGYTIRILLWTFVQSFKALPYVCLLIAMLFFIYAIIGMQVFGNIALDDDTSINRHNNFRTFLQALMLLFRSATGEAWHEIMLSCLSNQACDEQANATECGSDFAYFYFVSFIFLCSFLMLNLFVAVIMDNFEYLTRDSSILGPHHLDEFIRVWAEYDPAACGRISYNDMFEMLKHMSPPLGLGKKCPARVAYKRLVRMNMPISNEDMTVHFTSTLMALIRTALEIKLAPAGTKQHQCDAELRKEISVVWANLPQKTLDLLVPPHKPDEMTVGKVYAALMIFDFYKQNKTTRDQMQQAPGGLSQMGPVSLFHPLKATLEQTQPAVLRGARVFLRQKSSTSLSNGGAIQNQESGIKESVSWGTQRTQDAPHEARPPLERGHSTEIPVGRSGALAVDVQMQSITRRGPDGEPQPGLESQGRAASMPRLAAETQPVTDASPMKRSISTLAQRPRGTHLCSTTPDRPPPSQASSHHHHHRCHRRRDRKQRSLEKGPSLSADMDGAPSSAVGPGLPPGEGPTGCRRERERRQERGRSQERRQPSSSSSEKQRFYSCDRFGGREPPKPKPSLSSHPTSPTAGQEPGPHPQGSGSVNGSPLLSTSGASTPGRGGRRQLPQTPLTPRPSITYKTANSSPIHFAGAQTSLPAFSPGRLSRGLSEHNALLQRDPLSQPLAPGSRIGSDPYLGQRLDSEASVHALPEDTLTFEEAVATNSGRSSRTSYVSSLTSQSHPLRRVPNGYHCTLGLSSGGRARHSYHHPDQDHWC
T7 sequence (Q02410 whole entry): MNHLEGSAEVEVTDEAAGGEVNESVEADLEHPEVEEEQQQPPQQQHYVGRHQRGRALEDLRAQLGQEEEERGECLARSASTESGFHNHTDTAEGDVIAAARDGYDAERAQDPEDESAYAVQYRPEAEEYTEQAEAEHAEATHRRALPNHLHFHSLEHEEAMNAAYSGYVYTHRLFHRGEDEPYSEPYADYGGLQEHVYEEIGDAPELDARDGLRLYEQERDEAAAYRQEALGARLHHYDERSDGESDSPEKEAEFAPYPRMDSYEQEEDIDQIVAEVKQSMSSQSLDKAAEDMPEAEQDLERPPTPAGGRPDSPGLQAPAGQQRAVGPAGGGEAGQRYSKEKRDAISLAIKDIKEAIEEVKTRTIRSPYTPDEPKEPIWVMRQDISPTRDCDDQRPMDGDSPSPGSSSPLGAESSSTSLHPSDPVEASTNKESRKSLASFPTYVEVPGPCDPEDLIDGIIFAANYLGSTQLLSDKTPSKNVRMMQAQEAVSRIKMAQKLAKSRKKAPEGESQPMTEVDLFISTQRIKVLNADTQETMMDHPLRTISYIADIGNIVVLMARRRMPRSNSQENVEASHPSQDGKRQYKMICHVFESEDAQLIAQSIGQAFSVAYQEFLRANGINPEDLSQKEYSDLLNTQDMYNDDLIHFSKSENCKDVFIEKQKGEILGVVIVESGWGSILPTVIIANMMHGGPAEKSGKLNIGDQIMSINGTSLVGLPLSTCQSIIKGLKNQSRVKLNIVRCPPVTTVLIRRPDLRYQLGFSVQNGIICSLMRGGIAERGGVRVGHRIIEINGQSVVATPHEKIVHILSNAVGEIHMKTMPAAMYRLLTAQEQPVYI

[24] = target: T6, Dual specificity protein phosphatase 3; assay: VHR1 phosphatase inhibitors, biochemical (AID 1878)
[25] = target: T7, Voltage-gated N-type calcium channel alpha-1B subunit/Amyloid beta A4 precursor protein-binding family A member 1; type: protein assay; remark: listed apart in the source
[26] = target: T8, Carboxy-terminal domain RNA polymerase II polypeptide A small phosphatase 1 (Homo sapiens, UniProt Q9GZU7); assay: inhibitors of CTDSP1, concentration-response testing, biochemical assay, absorbance-based, actives from ultra-high-throughput screening (AID 540297); type: functional
T8 sequence (Q9GZU7 whole entry): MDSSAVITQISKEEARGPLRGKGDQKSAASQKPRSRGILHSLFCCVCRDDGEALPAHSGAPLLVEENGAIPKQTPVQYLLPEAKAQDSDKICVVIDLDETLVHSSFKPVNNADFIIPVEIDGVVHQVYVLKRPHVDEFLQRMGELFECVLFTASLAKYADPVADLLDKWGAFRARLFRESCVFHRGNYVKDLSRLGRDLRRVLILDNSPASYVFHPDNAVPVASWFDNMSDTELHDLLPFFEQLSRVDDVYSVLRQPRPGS

For `Cc1nn(C(C)C)c(C)c1CN1CCC(C(=O)Nc2cccc(-c3cccc(F)c3)c2)CC1`, the IC50 [1] was 12 µM (active), the EC50 [2] was 1.15 µM (active) and the EC50 [3] was 30.4 µM (active). For the same molecule, the IC50 [4] was 53 µM (active) and the IC50 [5] was 7.53 µM (active).

For `Cc1ccccc1N1CCN(c2ncnc3c2cnn3Cc2ccc(Cl)cc2)CC1`, the IC50 [6] was > 32 µM (not active), the EC50 [7] was 4.09 µM (active) and the IC50 [8] was 0.615 µM (active). The CC50 [9] was > 40 µM (active), the EC50 [10] was 1.14 µM (active) and the EC50 [11] was 54.1 µM (active). For the same molecule, the IC50 [12] was > 32 µM (inactive) and the EC50 [13] was 42.2 µM (active).

With `Oc1ccc(-c2cn3cc(C(F)(F)F)ccc3n2)cc1` the AC50 [14] was 11.1 µM (active), the AC50 [15] was 8.29 µM (active) and the AC50 [16] was 10.5 µM (active). For the same molecule, the AC50 [17] was 3.4 µM (active).

With `N=C(NC1CCCCC1)c1ccc(Cl)cc1` the EC50 [18] was 1.68 µM (active) and the IC50 [19] was 4.56 µM (active).

With `Cc1cc2c(s1)CCCCC(=O)N2` the AC50 [20] was “inconclusive”.

In the case of `COc1ccc(NC(=O)c2cc3c(COC(C)=O)cnc(C)c3o/c2=N\c2cccc(C(=O)O)c2)c(OC)c1`, the IC50 [21] is reported as > 158 µM (not active), the IC50 [22] is reported as 4.9 µM (active) and the IC50 [23] is reported as > 50 µM (inactive). The IC50 [24] was 1.53 µM (active), the IC50 [25] was 3.13 µM (active) and the IC50 [26] was 0.737 µM (active).
